The source of these data is patent publication US6399664B2, “Method of treating cancer, specifically leukemia, with ozone” (priority 1996, dated 2002).

Data set [1] has as its system chronic myeloid leukemia (CML). Nature of the data set: Conventional chemotherapy with Hydroxyurea of CML canine #198675.
Data set [2] relates to normal human peripheral blood mononuclear cells (PBMC). Put plainly: Normal human PBMC colony formation in methylcellulose medium. The format is cell-based. To be noted: ozone 5, 10, 15, 25 μg/ml. The procedure:
(§1) Ozone and ROI's were generated using medical grade oxygen from a high voltage corona discharge electrical ozone generator (Carpendale and Freeberg, 1991; Viebahn, 1994; FIG. 13). Liquid RPMI complete media suspension of K562 cell cultures or normal human whole blood (10 ml each treatment) was processed through a micro-bubbling device at several ozone concentrations (5, 10, 15, and 25 μg/ml). In addition, a 100% oxygen treated and non-processed control samples were also examined. After processing, complete blood counts were measured on all whole blood samples. Peripheral blood mononuclear cells (PBMC) were isolated using a standard density gradient of 1.077 g/ml and washed with Iscove's medium. Viability and cell counts were determined manually using a hemocytrometer and a 4% solution of Trypan blue. Cell concentrations were adjusted to 2.0×10^6 cells/ml. Cells were mixed in a 1:10 (v/v) ratio with methylcellulose medium with recombinant growth factors (#HCC-4434, StemCell Technologies Inc.) and plated to contain 2×10^5 cells per plate in duplicate for normal PBMCs and 2×10^4 for K562 cells. Plates were incubated at 37° C. in a CO2/O2 incubator. Colonies were scored on day 5, 8, 10 and day 14 according to the scoring criteria by StemCell Technologies. […]

The test system of another data set is K562 leukemic cell line. Put plainly: K562 colony formation and differentiation in methylcellulose medium. The format is cell-based, human. The procedure:
Ozone and ROI's were generated using medical grade oxygen from a high voltage corona discharge electrical ozone generator (Carpendale and Freeberg, 1991; Viebahn, 1994; FIG. 13). Liquid RPMI complete media suspension of K562 cell cultures or normal human whole blood (10 ml each treatment) was processed through a micro-bubbling device at several ozone concentrations (5, 10, 15, and 25 μg/ml). In addition, a 100% oxygen treated and non-processed control samples were also examined. After processing, complete blood counts were measured on all whole blood samples. Peripheral blood mononuclear cells (PBMC) were isolated using a standard density gradient of 1.077 g/ml and washed with Iscove's medium. Viability and cell counts were determined manually using a hemocytrometer and a 4% solution of Trypan blue. Cell concentrations were adjusted to 2.0×10^6 cells/ml. Cells were mixed in a 1:10 (v/v) ratio with methylcellulose medium with recombinant growth factors (#HCC-4434, StemCell Technologies Inc.) and plated to contain 2×10^5 cells per plate in duplicate for normal PBMCs and 2×10^4 for K562 cells. Plates were incubated at 37° C. in a CO2/O2 incubator. Colonies were scored on day 5, 8, 10 and day 14 according to the scoring criteria by StemCell Technologies. The data results for cell viability, total colonies (proliferation) and individual colony cell types (differentiation) are presented in FIGS. 1-8.

The subject of data set [3] is normal human peripheral blood leukocytes. Put plainly: Effects of ozone on normal human leukocytes run in parallel. The class given is cell-based. As to conditions: at the concentrations used. The procedure: as §1
Data set [4] relates to K562, Human CML cell line. Put plainly: K562 viability by Trypan blue exclusion after ozone micro-bubbling. The format is cell-based. As to conditions: ozone 5, 10, 15, 25 μg/ml. The procedure:
as §1

The test system of data set [5] is cultured human cancerous cell lines derived from lung, breast and uterine solid tumours. To be noted: little damage to normal cell growth; cited from earlier work.
The test system of data set [6] is cytokine levels such as IL-1, IL-2 and IFN-γ. To be noted: in humans; cited from earlier work.
The subject of data set [7] is chronic myeloid leukemia (CML). Put plainly: Ozone/ROI therapy (iv injection, adjunct minor autohemotherapy) of CML canine #198675. The class given is in vivo. How it is done: The attending veterinarian discussed euthanasia and the ozone or ROI therapy described in this invention with the owner under strict confidence. The owner and all attending veterinarians signed consent and confidentiality forms and the ozone or ROI therapy began on Sep. 23, 1997 and continued for 16 weeks. Prior to each weekly ozone or ROI treatment the patient's complete blood counts were measured using a Coulter Counter Hematology Analyzer (Coulter Electronics Canada Co.). The leukocyte differential counts were determined manually by the pathologist and recorded in FIG. 14. Ozone and ROI's were generated from a high voltage corona discharge electrical ozone generator using medical grade oxygen as shown in FIG. 13. Ozone/oxygen gas (30 to 60 ml) was injected intra-venously (iv) through a sterile catheter needle (Abbocath-T, 22 g×11⁄4 in.; Abbott Ireland) inserted in the leg vein of the mammal (canine #198675) with a sterile extension set (79 cm, […], Abbott Ireland) attached to the syringe containing the ozone ROI gas mixture. The ozone/oxygen gas mixture was slowly injected over a 10 to 20 minute period to allow maximum gas absorption. The secondary or adjunct to the preferred route of administration was minor autohemotherapy (minor AHT) where heparinized whole blood (7 ml each treatment) was gently mixed in a disposable syringe or devise with increasing doses of ozone to a maximum of 25 ml at 34 to 42 μg/ml (dose is species specific). The blood gas mixture was allowed to equilibrate at room temperature for 1 to 5 minutes with intermittent mixing. The excess gas was evacuated prior to intramuscular (im) or subcutaneous (sc) injection of the ozonated blood at several locations. Patients were accessed prior to, during and post treatment by blood tests, clinical response, and biopsy when appropriate.

Setting [8] is: 500 mg twice daily for approximately one year.
The mark [9] stands for this setting: 16 μg/ml ozone injected, up to 197 ug total, in vivo concentration less than 0.25 μg/ml.
Where [10] appears, read: 28 to 42 μg/ml ozone injected, up to 2100 ug total, in vivo concentration 0.5 to 1.5 μg/ml.

Regarding `NC(=O)NO` [Hydroxyurea], in data set [1] (setting [8]), the RBC counts result is listed as “increased with time”; the “WBC levels relative to normal canine range of 6.1 to 17.4×10^9 cells per liter” value is on record as “never returned to the normal canine range”; the “side effects (clinical presentation)” value was “depression, lethargy, severe to mild diarrhea, anorexia, vomiting, weight loss, occasionally vaginal bleeding, abdominal pain and splenomegaly”; the “total WBC counts” value is “decrease”. The “time of entering blast crisis after cessation of conventional chemotherapy” value in data set [1] (after one year of chemotherapy) is listed as 1.5 months.
`O=[O+][O-]` [ozone]: the “effects in the colonies from normal human PBMC” value in data set [2] was “no deleterious effects”. Moreover, in the data set on K562 leukemic cell line (increasing concentrations of ozone), the “colony differentiation, dose response” value was “increased colony differentiation into normal cells”. In the data set with K562 leukemic cell line (ozone 5, 10, 15, 25 μg/ml), the “production of normal hematopoietic colonies (CFU-E, BFU-E, GM-CFU, CFU-GEMM) from K562” value was “stimulates the production of normal hematopoietic colonies”. The “proliferation of leukemia derived colonies” value in the data set with K562 leukemic cell line (ozone 5, 10, 15, 25 μg/ml, total colonies) is given as “inhibits the proliferation”. In addition, the “effects on normal human leukocytes” value in data set [3] was “no significant deleterious effects”. Also, the “viability of malignant cells” value in data set [4] is given as “reduction in the viability”. Moreover, in data set [5], the “growth of cultured human cancerous cell lines” value was “selectively inhibit the growth”. Moreover, the “cytokine levels such as IL-1, IL-2 and IFN-γ” value in data set [6] was “increases cytokine levels”. In data set [7] (setting [9]), the “effect on canine hematopoietic system” value was “significant activation” and the “production of leukemic cells” value is “significant increase”. The “progression of CML (total WBC and RBC counts)” value in data set [7] (16 week treatment) is listed as “reversed the progression of CML”. In data set [7] (setting [10]), the “effect on canine hematopoietic system” value is given as “significant inhibition” and the “production of leukemic cells” value is given as “significant reduction”. Further, the “patient's quality of life” value in data set [7] (CML canine #198675, weekly ozone/ROI treatment, 16 weeks) is on record as “increase”. The diarrhea entry in data set [7] (CML canine #198675, diarrhea not related to CML) was “slight improvement in the diarrhea, although only temporary”. Also, the vomiting entry in data set [7] (after the first two weeks of treatment) is “decrease”. Besides, in data set [7] (ozone dose dependent, 16 to 42 μg/ml generated ozone concentration), the “ability of the immature stem cell to differentiate into the different blood cell types” value was “improved”. In addition, in data set [7] (with the increase of the internal ozone concentration in the mammal), the “total WBC counts” value is listed as “decrease”.
